This is an account of results in patent US20190367516A1 (Bayer Pharma Aktiengesellschaft, priority 2015, published 2019).

Like-named read-outs stand apart in the source and are kept apart here.

One may read the EC50 as the concentration that produces a half-maximal response. Higher therefore signals a need for much substance.

The target in assay [1] is T1, human M2 receptor (Homo sapiens, UniProt P08172).
T1 sequence (P08172 1-466): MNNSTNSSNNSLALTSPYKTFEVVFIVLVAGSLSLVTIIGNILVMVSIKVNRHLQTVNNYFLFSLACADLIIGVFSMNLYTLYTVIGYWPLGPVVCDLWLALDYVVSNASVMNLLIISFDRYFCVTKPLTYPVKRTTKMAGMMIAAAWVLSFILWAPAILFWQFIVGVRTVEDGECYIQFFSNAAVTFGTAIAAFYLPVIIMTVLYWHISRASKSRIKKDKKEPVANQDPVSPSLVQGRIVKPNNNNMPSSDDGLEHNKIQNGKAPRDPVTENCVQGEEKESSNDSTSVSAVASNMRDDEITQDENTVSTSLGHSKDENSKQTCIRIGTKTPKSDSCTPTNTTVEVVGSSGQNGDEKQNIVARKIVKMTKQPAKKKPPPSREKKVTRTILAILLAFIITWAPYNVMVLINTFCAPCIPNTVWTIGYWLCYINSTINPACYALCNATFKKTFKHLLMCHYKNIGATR
To be noted: for Emax: read-out: Efficiency, boosting of the acetylcholine effect at EC20 acetylcholine concentration; for Efficiency: boosting of the acetylcholine effect at EC20 acetylcholine concentration.

The target of assay [2] is T1, human M2 receptor. The assay is classed as cell-based. To be noted: α >1 = positive cooperativity.
Setting [3] is: Receptor activity EC50, allosteric potency at EC20 acetylcholine, M2-GIRK1/4 reporter cells, in some cases mean of two or more determinations.
Where [4] appears, read: shift of acetylcholine dose-response curve (Allosteric EC50 shift).
Where [5] appears, read: Receptor activity EC50, M2-GIRK1/4 activation test, acetylcholine at EC20, allosteric potency, in some cases mean values from two or more determinations.
Where [6] appears, read: shift in the acetylcholine dose-response curve (Allosteric EC50 shift, GraphPad PRISM).

Consider `O=C(NC12CC(C1)C2)c1cn(-c2c(F)cc(F)cc2Cl)c2nc(N3C[C@@H](O)CC3=O)ccc2c1=O` [Example 396, N-(Bicyclo[1.1.1]pent-1-yl)-1-(2-chloro-4,6-difluorophenyl)-7-[(4S)-4-hydroxy-2-oxopyrrolidin-1-yl]-4-oxo-1,4-dihydro-1,8-naphthyridine-3-carboxamide], for which the EC50 at human M2 receptor [1] (setting [3]) is 17 nM. Also, the Emax on human M2 receptor [1] (M2-GIRK1/4 reporter cells) stood at 92%. Besides, at human M2 receptor [2] (setting [4]), the “Cooperativity (alpha factor)” value is reported as 29.

Take `CC(C)C[C@H](NC(=O)c1cn(-c2c(F)cc(F)cc2F)c2nc(N3C[C@@H](O)[C@@H](O)C3)ccc2c1=O)C(F)(F)F` [Example 573, 7-[(3R,4S)-3,4-Dihydroxypyrrolidin-1-yl]-4-oxo-N-[(2S)-1,1,1-trifluoro-4-methylpentan-2-yl]-1-(2,4,6-trifluorophenyl)-1,4-dihydro-1,8-naphthyridine-3-carboxamide]: a half-maximal response on human M2 receptor [1] (setting [3]) (EC50) required 12 nM. The Emax at human M2 receptor [1] (M2-GIRK1/4 reporter cells) was 100%. The “Cooperativity (alpha factor)” value on human M2 receptor [2] (setting [4]) is reported as 57.

Take `CC[C@@H](NC(=O)c1cn(-c2ccc(F)cc2F)c2nc(N3CC(C)NC3=O)ccc2c1=O)C(F)(F)F` (single isomer, unassigned) [Example 432]: on human M2 receptor [1] (setting [3]), the EC50 came to 40 nM. In addition, at human M2 receptor [1] (M2-GIRK1/4 reporter cells), the Emax came out at 94%. The “Cooperativity (alpha factor)” value at human M2 receptor [2] (setting [4]) is 26.

For the compound `O=C(NC12CC3CC(CC(C3)C1)C2)c1cn(-c2ccc(F)cc2F)c2nc(N3CC[C@@H](F)[C@H](O)C3)ccc2c1=O` [Example 3, 1-(2,4-Difluorophenyl)-7-[(3R,4R)-4-fluoro-3-hydroxypiperidin-1-yl]-4-oxo-N-(tricyclo[3.3.1.1^3,7]dec-1-yl)-1,4-dihydro-1,8-naphthyridine-3-carboxamide], at human M2 receptor [1] (setting [5]), the EC50 stood at 17 nM. Further, the “Cooperativity (alpha factor)” value at human M2 receptor [2] (setting [6]) turned out to be 30.

`O=C(NC12CC3CC(CC(C3)C1)C2)c1cn(-c2ccc(F)cc2F)c2nc(NCC(F)(F)F)ccc2c1=O` [Example 90, 1-(2,4-Difluorophenyl)-4-oxo-N-(tricyclo[3.3.1.1^3,7]dec-1-yl)-7-[(2,2,2-trifluoroethyl)amino]-1,4-dihydro-1,8-naphthyridine-3-carboxamide]: the EC50 at human M2 receptor [1] (setting [5]) was determined as 298 nM. Further, the “Cooperativity (alpha factor)” value at human M2 receptor [2] (setting [6]) turned out to be 11.

With `CC(COC(F)(F)F)NC(=O)c1cn(-c2ccc(F)cc2F)c2nc(N3CCCC3)ccc2c1=O` (racemic) [Example 232, 1-(2,4-Difluorophenyl)-4-oxo-7-(pyrrolidin-1-yl)-N-[1-(trifluoromethoxy)propan-2-yl]-1,4-dihydro-1,8-naphthyridine-3-carboxamide], a half-maximal response at human M2 receptor [1] (setting [5]) (EC50) required 97 nM. Besides, the “Cooperativity (alpha factor)” value at human M2 receptor [2] (setting [6]) worked out at 8.

In the case of `C[C@@H]1CN(c2ccc3c(=O)c(C(=O)NC(C)(C)C(F)F)cn(-c4c(F)cc(F)cc4F)c3n2)C(=O)N1` [Example 452, N-(1,1-Difluoro-2-methylpropan-2-yl)-7-[(4R)-4-methyl-2-oxoimidazolidin-1-yl]-4-oxo-1-(2,4,6-trifluorophenyl)-1,4-dihydro-1,8-naphthyridine-3-carboxamide], the EC50 at human M2 receptor [1] (setting [3]) came to 13 nM. For the same compound, the Emax at human M2 receptor [1] (M2-GIRK1/4 reporter cells) turned out to be 100%. For the same compound, the “Cooperativity (alpha factor)” value at human M2 receptor [2] (setting [4]) turned out to be 25.

In turn, `CC[C@H](NC(=O)c1cn(-c2c(F)cc(F)cc2Cl)c2nc(N3CCC(C)C3=O)ccc2c1=O)C(F)(F)F` (single isomer, unassigned) [Example 425] showed an EC50 on human M2 receptor [1] (setting [3]) of 5 nM. The compound also returned an Efficiency at human M2 receptor [1] (M2-GIRK1/4 reporter cells) of 90.5%. Besides, the “Cooperativity (alpha factor)” value at human M2 receptor [2] (setting [4]) was determined as 9.

For the compound `O=C(N[C@@H](C1CC1)C(F)(F)F)c1cn(-c2c(F)cc(F)cc2Cl)c2nc(N3C[C@@H](O)[C@H](O)C3)ccc2c1=O` (single isomer, unassigned) [Example 548], at human M2 receptor [1] (setting [3]), the EC50 stood at 9 nM. Also, the Efficiency on human M2 receptor [1] (M2-GIRK1/4 reporter cells) amounted to 100.0%. For the same compound, the “Cooperativity (alpha factor)” value on human M2 receptor [2] (setting [4]) came to 37.

Take `O=C(N[C@H](c1ccccc1Cl)C(F)(F)F)c1cn(-c2ccc(F)cc2F)c2nc(N3CCCC(O)C3=O)ccc2c1=O` (single isomer, unassigned) [Example 207]: the midpoint of the response on human M2 receptor [1] (setting [5]), the EC50, lay at 35 nM. Also, the “Cooperativity (alpha factor)” value at human M2 receptor [2] (setting [6]) came out at 18.
